Reference: patent US8697687B2, “Treating diseases mediated by blockade of the epithelial sodium channel with pyrazine-2-carboxamide derivatives” (Novartis AG, priority 2007, dated 2014)

Biological target: T1, epithelial sodium channel (ENaC) (Homo sapiens, UniProt P37088+P51168+P51170)
T1 construct: host or cells: primary Human Bronchial Epithelial cells (HBECs), air-liquid interface culture
T1 sequence (P37088 1-669): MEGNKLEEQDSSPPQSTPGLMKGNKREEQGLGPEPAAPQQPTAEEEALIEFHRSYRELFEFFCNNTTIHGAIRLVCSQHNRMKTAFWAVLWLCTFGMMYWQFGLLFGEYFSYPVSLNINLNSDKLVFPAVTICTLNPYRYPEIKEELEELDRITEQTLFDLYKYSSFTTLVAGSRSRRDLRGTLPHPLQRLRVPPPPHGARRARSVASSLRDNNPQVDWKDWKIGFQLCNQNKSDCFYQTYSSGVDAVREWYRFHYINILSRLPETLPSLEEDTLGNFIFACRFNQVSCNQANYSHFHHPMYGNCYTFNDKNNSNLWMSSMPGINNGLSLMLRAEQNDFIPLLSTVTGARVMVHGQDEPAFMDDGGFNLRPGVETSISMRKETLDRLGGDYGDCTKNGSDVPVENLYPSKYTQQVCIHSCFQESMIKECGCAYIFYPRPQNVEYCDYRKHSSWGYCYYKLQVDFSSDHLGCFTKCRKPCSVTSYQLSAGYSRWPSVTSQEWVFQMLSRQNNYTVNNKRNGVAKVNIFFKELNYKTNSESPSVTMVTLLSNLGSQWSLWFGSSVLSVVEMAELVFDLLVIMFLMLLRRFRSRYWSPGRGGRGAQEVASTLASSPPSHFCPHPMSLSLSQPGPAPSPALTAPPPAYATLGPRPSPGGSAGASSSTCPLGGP
T1 sequence (P51168 1-640): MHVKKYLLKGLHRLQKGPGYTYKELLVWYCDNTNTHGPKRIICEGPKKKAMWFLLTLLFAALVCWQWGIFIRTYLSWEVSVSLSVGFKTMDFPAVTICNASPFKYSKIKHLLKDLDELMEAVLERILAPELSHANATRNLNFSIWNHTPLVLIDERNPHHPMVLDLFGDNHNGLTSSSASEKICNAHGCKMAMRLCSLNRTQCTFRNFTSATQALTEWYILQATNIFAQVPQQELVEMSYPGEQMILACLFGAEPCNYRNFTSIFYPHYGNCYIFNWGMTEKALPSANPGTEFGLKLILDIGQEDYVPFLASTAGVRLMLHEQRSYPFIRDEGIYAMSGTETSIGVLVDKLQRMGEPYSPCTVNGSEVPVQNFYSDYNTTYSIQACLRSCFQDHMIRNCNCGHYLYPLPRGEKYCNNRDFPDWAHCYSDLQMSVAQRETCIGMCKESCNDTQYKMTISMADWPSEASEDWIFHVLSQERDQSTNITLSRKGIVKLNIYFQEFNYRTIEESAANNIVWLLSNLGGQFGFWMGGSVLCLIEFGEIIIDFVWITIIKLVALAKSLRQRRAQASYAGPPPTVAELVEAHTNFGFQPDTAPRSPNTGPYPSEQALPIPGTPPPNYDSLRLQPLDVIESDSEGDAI
T1 sequence (P51170 1-649): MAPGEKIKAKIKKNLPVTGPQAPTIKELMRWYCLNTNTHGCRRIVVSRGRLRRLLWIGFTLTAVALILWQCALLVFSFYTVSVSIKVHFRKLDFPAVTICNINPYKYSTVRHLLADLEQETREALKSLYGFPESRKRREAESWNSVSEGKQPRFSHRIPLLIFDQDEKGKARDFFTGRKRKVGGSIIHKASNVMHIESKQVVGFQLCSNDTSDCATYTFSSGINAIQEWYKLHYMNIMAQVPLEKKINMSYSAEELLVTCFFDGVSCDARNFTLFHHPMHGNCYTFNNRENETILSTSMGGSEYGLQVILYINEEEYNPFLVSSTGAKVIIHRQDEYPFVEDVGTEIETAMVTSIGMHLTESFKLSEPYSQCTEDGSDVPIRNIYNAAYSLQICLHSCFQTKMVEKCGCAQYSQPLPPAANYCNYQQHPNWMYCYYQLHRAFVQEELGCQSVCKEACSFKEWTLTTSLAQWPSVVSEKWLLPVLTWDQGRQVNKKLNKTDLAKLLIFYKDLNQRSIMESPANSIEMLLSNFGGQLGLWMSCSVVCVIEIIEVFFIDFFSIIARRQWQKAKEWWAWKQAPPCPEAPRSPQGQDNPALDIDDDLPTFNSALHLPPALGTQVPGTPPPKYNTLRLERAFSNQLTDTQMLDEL
Assay: Short circuit current (ISC) measurements in Human Bronchial Epithelial cells, inhibition of amiloride-sensitive ISC
Format: cell-based
Settings: inhibition of the amiloride-sensitive ISC; Human Bronchial Epithelial cells (HBECs) at air-liquid interface; compound added to apical chamber; read-out: IC50
In short: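 Well-differentiated air-liquid interface HBECs (days 7–21) in Ussing chambers, Ringer pH 7.4, 37° C, voltage clamped at 0 mV. Cumulative 3-fold apical compound additions, then 10 μM amiloride to define total amiloride-sensitive ISC. IC50 from mean % inhibition, typically duplicate inserts.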

SMILES | IC50 [nM]
Nc1nc(N)c(C(=O)/N=C2\NCC3(CCN(C(=O)c4cccc5[nH]ccc45)CC3)N2)nc1Cl [Example 99, 3,5-Diamino-6-chloro-pyrazine-2-carboxylic acid [8-(1H-indole-4-carbonyl)-1,3,8-triaza-spiro[4.5]dec-(2E)-ylidene]-amide] | 19
CCN(CC)C(=O)Cn1ccc2c(C(=O)N3CCC4(CC3)CN/C(=N\C(=O)c3nc(Cl)c(N)nc3N)N4)cccc21 [Example 91, 3,5-Diamino-6-chloro-pyrazine-2-carboxylic acid [8-(1-diethylcarbamoylmethyl-1H-indole-4-carbonyl)-1,3,8-triaza-spiro[4.5]dec-(2E)-ylidene]-amide] | 88.5
